Assay results reported in ChEMBL document CHEMBL1201862, “PubChem BioAssay data set” (2004).
The source made the active and inactive calls.

How the values were obtained:
[1] = molecular target: T1, E3 ubiquitin-protein ligase XIAP (Homo sapiens, UniProt P98170); assay: Counter Screen using XIAP-Bir3 for Chemical Antagonists of Bir1/2 domains of IAP-family anti-apoptotic proteins. [Related pubchem assays (depositor defined):AID1018, AID1449, AID1514, AID1638, AID1749, AID1750, AID488957, AID488963]
T1 sequence (P98170 whole entry): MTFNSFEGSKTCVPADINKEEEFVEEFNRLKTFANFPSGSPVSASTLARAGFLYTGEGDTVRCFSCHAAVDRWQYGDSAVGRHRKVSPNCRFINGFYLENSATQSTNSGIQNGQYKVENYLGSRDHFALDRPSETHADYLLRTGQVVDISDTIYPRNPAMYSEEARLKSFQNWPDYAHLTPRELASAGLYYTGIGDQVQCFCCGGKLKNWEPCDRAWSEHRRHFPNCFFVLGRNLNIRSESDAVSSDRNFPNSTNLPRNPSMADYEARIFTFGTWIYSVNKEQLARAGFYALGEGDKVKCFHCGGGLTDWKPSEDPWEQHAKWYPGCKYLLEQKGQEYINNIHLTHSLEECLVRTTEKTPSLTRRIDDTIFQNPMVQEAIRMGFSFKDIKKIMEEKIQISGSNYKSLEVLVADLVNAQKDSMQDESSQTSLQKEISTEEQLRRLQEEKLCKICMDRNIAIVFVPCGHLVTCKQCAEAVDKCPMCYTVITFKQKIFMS

[2] = NIH3T3 cell viability loss – ATP luminescence, mouse fibroblasts, counter-screen, dose response (AID 2010); assay type: functional, cell-based;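 also: cells exposed to compound for about 90 hours before reading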
[3] = molecular target: T1, E3 ubiquitin-protein ligase XIAP; assay: small molecules displacing peptide from XIAP – biochemical, IAP family, fluorescence polarization (AID 1018); assay type: functional
[4] = Trypanosoma cruzi growth suppression in host cells – NIH3T3 host cells, beta-gal luminescence, confirmation (AID 2044); assay type: functional, cell-based;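 also: intracellular parasites grown in NIH/3T3 mouse fibroblasts as host cells; luminescent beta-galactosidase reporter signal from transgenic T. cruzi replicating inside host cells; inhibitors lower the luminescence signal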
HEK293 = assay: cells; assay type: functional, cell-based; details: Homo sapiens
[5] = molecular target: T2, Nuclear receptor subfamily 0 group B member 1 (Homo sapiens, UniProt P51843); assay: Luminescence-based cell-based high throughput dose response assay for inhibitors of the orphan nuclear receptor subfamily 0, group B, member 1 (DAX1; NR0B1). [Related pubchem assays (depositor defined):AID504766, AID504790]; assay type: functional
T2 sequence (P51843 whole entry): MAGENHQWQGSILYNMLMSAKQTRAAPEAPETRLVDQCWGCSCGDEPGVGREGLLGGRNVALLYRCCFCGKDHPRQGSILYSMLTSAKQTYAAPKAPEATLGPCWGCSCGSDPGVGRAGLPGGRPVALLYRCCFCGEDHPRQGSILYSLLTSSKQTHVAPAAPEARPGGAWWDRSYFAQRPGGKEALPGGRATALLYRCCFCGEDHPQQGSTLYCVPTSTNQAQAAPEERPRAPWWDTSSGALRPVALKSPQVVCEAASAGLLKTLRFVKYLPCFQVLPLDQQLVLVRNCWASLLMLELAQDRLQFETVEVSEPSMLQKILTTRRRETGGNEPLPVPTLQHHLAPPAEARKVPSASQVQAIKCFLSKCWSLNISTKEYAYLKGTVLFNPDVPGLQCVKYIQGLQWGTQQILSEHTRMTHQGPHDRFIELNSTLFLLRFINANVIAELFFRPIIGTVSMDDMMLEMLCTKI

[6] = molecular target: G-protein coupled receptor 35 (Homo sapiens, UniProt Q9HC97); assay: inhibition of zaprinast-stimulated GPR35 beta-arrestin translocation – imaging, U2OS, beta-arrestin-GFP, zaprinast agonist, primary screen (AID 2058); assay type: functional;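 also: antagonist potency meaning inhibition of agonist-induced arrestin redistribution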
G-protein coupled receptor 35, sequence (Q9HC97 whole entry): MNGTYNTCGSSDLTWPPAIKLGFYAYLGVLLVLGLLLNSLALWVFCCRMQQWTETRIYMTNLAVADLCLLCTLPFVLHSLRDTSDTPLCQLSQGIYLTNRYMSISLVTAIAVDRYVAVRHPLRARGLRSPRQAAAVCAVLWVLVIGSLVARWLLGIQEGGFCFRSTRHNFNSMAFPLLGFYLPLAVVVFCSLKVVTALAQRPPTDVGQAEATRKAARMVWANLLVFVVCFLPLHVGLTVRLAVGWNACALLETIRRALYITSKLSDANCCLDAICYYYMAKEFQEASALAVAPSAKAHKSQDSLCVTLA

Beta-galactosidase = Beta-galactosidase (Escherichia coli, UniProt Q8VNN2); assay: detection-enzyme interference by beta-gal modulators – biochemical, E. coli enzyme, set 3, artefact control for CCR6 antagonist project, dose response (AID 504712); assay type: functional
Beta-galactosidase, sequence (Q8VNN2 whole entry): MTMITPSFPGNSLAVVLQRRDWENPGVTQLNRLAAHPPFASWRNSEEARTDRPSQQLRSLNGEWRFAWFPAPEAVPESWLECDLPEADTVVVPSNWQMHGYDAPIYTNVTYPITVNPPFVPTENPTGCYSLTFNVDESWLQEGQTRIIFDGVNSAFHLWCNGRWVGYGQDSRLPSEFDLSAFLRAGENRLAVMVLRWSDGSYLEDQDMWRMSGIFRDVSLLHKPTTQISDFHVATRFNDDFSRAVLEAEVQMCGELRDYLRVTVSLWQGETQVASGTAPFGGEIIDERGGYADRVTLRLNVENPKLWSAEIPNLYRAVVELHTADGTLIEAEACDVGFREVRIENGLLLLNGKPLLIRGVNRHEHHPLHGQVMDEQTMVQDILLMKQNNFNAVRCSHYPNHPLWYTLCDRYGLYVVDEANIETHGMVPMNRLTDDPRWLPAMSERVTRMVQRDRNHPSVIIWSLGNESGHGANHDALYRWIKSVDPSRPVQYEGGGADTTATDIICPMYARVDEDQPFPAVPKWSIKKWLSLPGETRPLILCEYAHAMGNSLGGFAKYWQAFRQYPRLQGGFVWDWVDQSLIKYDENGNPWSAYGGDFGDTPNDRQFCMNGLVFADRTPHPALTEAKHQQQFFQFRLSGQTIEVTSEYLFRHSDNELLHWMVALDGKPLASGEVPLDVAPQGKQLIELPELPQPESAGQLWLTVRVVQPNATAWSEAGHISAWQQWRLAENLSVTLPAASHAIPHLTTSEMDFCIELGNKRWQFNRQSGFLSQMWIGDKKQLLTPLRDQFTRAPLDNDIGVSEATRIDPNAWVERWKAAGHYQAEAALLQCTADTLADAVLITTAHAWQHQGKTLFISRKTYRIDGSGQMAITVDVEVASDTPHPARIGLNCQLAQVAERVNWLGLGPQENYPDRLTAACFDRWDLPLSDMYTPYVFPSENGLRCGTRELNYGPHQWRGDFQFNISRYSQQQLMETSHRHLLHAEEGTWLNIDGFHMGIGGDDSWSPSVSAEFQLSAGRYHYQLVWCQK

[7] = molecular target: T3, C-C chemokine receptor type 6 (Homo sapiens, UniProt P51684); assay: antagonism of CCR6 beta-arrestin recruitment – cell-based, luminescent beta-arrestin readout, dose response (AID 504728); assay type: functional
T3 sequence (P51684 whole entry): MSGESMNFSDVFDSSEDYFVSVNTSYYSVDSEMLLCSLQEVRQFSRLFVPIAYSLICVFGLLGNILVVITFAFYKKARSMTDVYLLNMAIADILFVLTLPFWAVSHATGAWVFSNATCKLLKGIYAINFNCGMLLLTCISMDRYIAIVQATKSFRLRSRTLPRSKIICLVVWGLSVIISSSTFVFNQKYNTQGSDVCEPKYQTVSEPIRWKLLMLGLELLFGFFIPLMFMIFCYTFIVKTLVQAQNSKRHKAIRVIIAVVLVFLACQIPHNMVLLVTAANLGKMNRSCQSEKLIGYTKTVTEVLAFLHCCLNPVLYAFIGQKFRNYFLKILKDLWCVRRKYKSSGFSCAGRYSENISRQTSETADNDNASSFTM

Cytochrome P450 2C9 = Cytochrome P450 2C9 (Homo sapiens, UniProt P11712)
Cytochrome P450 2C9, sequence (P11712 whole entry): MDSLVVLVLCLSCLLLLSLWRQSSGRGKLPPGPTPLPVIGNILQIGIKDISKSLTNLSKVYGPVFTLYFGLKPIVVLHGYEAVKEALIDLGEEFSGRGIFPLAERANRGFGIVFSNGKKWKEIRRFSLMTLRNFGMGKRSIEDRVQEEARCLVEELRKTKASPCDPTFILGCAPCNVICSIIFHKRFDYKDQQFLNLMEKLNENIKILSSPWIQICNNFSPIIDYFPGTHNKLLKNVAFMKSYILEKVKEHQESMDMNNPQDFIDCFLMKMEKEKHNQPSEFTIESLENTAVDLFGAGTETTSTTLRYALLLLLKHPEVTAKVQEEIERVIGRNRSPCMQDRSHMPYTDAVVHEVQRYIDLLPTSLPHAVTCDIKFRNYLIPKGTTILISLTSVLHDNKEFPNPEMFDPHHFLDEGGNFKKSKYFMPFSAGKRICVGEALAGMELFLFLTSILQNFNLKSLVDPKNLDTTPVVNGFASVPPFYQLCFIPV

Cytochrome P450 3A4 = Cytochrome P450 3A4 (Homo sapiens, UniProt P08684);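 also: CYP3A4 tested as one member of a cytochrome P450 panel screen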
Cytochrome P450 3A4, sequence (P08684 whole entry): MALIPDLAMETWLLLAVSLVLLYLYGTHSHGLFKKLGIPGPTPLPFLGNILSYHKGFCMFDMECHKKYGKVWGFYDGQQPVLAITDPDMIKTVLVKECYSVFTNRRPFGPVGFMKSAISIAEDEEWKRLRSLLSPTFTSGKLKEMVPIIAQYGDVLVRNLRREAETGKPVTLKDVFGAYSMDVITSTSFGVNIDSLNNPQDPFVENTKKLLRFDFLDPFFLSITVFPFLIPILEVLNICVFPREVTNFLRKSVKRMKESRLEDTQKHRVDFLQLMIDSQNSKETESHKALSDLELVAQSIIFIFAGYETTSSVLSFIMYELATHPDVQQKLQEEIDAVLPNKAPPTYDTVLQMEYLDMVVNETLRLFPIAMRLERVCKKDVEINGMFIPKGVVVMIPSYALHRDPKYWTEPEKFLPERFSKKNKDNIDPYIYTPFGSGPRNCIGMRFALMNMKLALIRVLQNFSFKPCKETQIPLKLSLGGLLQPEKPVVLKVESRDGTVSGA

[8] = molecular target: Intestinal-type alkaline phosphatase (Homo sapiens, UniProt P09923); assay: Dose Response confirmation of uHTS hits from a small molecule inhibitors of human intestinal alkaline phosphatase via a luminescent assay. [Related pubchem assays (depositor defined):AID2544, AID2574]; assay type: functional
Intestinal-type alkaline phosphatase, sequence (P09923 whole entry): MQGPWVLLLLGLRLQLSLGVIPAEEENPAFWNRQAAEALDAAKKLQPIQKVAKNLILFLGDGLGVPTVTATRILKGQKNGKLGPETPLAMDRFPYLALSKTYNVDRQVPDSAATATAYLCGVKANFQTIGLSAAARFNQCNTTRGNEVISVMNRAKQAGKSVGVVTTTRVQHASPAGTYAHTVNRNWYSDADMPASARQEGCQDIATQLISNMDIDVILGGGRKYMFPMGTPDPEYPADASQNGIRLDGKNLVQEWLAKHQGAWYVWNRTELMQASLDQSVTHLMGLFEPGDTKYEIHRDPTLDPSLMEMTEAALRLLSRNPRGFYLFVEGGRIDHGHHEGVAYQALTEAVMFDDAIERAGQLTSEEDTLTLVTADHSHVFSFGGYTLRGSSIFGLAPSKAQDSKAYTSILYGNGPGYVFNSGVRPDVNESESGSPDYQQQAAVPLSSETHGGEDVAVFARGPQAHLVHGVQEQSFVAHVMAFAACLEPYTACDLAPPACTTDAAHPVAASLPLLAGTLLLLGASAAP

Cytochrome P450 2C19 = Cytochrome P450 2C19 (Homo sapiens, UniProt P33261); assay: Cytochrome panel assay with activity outcomes. Panel member name: p450-cyp2c19 Compounds with AC50 equal or less than 10 uM are considered active; assay type: functional; details: read-out: AC50
Cytochrome P450 2C19, sequence (P33261 whole entry): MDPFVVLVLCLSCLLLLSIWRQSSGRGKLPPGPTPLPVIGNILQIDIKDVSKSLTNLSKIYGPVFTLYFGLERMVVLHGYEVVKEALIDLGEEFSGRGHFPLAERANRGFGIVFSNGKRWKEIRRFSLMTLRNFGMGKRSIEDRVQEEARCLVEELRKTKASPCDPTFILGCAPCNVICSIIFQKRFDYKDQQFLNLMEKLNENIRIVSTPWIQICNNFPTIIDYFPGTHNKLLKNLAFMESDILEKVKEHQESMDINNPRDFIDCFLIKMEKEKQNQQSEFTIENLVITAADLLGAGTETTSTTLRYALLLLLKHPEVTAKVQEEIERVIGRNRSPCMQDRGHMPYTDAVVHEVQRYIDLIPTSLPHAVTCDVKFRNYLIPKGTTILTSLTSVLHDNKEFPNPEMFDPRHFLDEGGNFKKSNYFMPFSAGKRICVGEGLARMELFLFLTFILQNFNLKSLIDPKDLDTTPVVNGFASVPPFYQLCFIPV

Large T antigen = Large T antigen (Simian virus 40, UniProt P03070); assay type: functional, Betapolyomavirus macacae;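 also: Confirmatory-stage PubChem screen for compounds that inhibit SV40 T antigen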
Large T antigen, sequence (P03070 whole entry): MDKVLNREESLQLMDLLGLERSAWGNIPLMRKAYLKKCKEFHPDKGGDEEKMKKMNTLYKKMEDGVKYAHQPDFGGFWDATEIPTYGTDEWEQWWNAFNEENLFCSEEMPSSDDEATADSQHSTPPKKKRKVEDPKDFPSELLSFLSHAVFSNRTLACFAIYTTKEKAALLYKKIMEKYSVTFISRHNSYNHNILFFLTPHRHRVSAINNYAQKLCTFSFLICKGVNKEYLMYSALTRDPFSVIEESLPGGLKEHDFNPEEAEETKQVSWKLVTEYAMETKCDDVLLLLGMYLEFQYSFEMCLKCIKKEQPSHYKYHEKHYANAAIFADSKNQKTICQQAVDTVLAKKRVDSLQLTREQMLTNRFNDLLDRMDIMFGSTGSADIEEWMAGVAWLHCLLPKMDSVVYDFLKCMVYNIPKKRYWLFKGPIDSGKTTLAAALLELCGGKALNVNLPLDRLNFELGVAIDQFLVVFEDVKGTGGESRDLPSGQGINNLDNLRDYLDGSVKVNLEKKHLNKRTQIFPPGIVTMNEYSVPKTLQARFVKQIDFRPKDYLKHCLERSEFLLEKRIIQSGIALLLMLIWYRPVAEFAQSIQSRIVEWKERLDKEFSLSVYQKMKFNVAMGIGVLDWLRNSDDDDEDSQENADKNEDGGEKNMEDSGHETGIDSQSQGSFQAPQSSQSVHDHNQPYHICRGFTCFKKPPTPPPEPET

[9] = molecular target: Neurotensin receptor type 1 (Homo sapiens, UniProt P30989); assay type: functional;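 also: Image-based confirmatory dose-response assay measuring agonist activity at NTR1; NTR1-expressing U2OS osteosarcoma cells imaged for beta-arrestin GFP spot formation; agonist potency where compounds increase beta-arrestin recruitment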
Neurotensin receptor type 1, sequence (P30989 whole entry): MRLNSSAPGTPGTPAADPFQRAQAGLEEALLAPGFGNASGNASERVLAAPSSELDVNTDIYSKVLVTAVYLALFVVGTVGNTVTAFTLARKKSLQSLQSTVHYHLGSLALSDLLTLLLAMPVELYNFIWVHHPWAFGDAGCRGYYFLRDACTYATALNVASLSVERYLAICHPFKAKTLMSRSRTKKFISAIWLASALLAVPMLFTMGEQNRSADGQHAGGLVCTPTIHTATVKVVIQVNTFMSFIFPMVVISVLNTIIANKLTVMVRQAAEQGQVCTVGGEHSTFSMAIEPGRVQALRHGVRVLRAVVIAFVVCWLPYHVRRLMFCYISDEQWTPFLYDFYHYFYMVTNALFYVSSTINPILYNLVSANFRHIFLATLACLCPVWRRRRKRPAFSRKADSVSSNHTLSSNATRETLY

[10] = Luminescence Cell-Based Dose Retest to Confirm Inhibitors of Cancer Stem Cells. [Related pubchem assays (depositor defined):AID2717, AID2721]; assay type: functional; details: Homo sapiens
[11] = molecular target: T4, Histone-lysine N-methyltransferase NSD2 (Homo sapiens, UniProt O96028); assay type: biochemical
T4 sequence (O96028 whole entry): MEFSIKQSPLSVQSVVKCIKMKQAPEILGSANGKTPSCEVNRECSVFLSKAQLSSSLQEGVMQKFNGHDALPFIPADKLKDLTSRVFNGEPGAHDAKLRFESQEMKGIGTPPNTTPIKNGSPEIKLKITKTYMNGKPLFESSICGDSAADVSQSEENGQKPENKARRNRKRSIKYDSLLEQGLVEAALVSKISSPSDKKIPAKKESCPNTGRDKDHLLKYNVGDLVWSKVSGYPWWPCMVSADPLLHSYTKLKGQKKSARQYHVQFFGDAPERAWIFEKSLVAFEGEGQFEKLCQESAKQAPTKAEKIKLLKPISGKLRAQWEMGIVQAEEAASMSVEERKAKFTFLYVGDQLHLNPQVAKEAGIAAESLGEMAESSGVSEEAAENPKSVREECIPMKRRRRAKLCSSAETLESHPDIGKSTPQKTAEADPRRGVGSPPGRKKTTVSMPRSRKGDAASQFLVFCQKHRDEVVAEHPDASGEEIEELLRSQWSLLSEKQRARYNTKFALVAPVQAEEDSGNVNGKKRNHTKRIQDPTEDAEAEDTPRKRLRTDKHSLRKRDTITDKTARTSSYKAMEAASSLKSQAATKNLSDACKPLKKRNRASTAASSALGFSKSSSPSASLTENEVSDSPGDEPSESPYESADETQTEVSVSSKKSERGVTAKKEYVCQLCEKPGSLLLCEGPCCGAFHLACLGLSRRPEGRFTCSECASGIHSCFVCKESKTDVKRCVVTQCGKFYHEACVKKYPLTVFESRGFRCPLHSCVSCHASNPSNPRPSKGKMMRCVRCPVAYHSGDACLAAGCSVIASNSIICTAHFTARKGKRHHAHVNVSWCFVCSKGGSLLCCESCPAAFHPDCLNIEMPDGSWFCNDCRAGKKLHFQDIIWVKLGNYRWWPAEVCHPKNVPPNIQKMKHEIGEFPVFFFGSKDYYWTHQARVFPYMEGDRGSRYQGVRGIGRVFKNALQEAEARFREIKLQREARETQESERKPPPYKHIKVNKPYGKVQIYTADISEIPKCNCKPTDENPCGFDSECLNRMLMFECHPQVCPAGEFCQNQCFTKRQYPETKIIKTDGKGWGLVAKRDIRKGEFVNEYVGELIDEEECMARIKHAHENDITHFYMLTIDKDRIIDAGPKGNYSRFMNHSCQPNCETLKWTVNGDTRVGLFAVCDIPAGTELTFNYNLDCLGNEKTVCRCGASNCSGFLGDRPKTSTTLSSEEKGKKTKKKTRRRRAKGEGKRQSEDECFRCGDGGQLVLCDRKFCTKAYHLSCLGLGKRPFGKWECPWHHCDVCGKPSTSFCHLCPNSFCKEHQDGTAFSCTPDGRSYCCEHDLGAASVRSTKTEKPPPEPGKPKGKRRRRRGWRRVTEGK

INS1 = assay: INS-1E survival protection against cytokine death – cell-based, luminescence, retest, dose response (AID 449756); assay type: functional; details: Rattus norvegicus;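 also: cell death triggered by IL-1 beta plus TNF-alpha plus IFN-gamma mixture; protective hits raise ATP signal compared with cytokine alone wells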
[12] = molecular target: T5, Ubiquitin-conjugating enzyme E2 N (Homo sapiens, UniProt P61088); assay type: functional;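 also: Dose-response confirmation in a TR-FRET assay detecting UBC13-driven polyubiquitin chain formation, inhibition measured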
T5 sequence (P61088 whole entry): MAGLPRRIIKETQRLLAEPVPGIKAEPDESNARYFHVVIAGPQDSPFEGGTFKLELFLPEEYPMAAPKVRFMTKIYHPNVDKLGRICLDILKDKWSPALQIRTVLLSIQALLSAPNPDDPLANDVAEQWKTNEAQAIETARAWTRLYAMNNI

Cytochrome P450 1A2 = molecular target: T6, Cytochrome P450 1A2 (Homo sapiens, UniProt P05177);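 also: PubChem cytochrome P450 panel assay, CYP1A2 panel member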
T6 sequence (P05177 whole entry): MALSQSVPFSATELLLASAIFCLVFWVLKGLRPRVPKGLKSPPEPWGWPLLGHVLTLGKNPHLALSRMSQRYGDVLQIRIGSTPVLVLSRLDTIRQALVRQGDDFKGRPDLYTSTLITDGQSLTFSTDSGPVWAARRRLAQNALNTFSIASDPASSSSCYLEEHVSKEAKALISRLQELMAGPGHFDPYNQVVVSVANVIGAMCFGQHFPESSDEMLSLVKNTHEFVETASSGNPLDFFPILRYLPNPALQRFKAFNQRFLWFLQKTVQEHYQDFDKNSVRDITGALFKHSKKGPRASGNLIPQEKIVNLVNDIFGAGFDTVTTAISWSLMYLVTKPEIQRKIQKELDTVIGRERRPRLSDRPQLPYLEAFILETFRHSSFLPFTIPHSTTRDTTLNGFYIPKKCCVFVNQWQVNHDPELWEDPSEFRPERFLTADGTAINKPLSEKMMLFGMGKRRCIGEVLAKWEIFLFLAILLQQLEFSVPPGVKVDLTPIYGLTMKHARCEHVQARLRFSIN

[13] = molecular target: Dual specificity tyrosine-phosphorylation-regulated kinase 1A (Rattus norvegicus, UniProt Q63470); assay type: biochemical, Homo sapiens
cells = assay type: functional
[14] = THP-1 cell cytotoxicity, dose response, cytotoxicity control for non-replicating M. tuberculosis project (AID 489025); assay type: functional

With `S=C(Nc1ccc(Br)cc1)N1CCn2cccc2C1c1cccnc1` (stereo unspecified) the IC50 [1] was > 100 µM (inactive), the EC50 [2] was > 60 µM (not active) and the IC50 [3] was > 100 µM (not active). For the same molecule, the EC50 [4] was 605 nM (active).
For `Cn1c(NCc2ccccc2Cl)nc2ccccc21`, the IC50 (HEK293) was > 67.6 µM (inactive) and the IC50 [5] was > 67.6 µM (inactive).
In the case of `CS(=O)(=O)N1N=C(c2ccccc2)CC1c1ccc2c(c1)OCO2` (stereo unspecified), the IC50 [6] is reported as 1.42 µM (active).
With `COc1ccccc1C1SCCN1S(=O)(=O)c1cccc(C(F)(F)F)c1` (stereo unspecified) the IC50 [1] was > 100 µM (inactive) and the IC50 [3] was > 100 µM (not active).
With `Cc1ccc(C(=C2C3C=CC2C2C(=O)NC(=O)C32)c2ccc(C)cc2)cc1` (stereo unspecified) the IC50 (Beta-galactosidase) was > 66.6 µM (inactive) and the IC50 [7] was > 66.6 µM (inactive).
In the case of `CC(C)NC(=O)N1CCC2(CC1)CCN(C(=O)c1cc(C(F)(F)F)cc(C(F)(F)F)c1)CC2`, the AC50 (Cytochrome P450 2C9) is reported as “inconclusive” and the AC50 (Cytochrome P450 3A4) is reported as “inconclusive”.
For `COc1ccc(-c2cc3nc(C)cc(C)n3n2)cc1`, the IC50 (HEK293) was > 67.5 µM (inactive) and the IC50 [5] was > 67.5 µM (inactive).
For `COc1cc(/C=C/C(=O)OCC(=O)NC(=O)NC2CCCCC2)ccc1OC(F)F`, the IC50 [8] was > 100 µM (inactive).
With `Cc1c2c(nc3c(C(=O)NC4CCCC4)cnn13)CCCC2` the AC50 (Cytochrome P450 2C19) was 39.8 µM (inconclusive) and the AC50 (Cytochrome P450 3A4) was “inconclusive”.
In the case of `COc1ccccc1C1CN(c2ccccc2)N=C1c1cccs1` (stereo unspecified), the IC50 [8] is reported as > 100 µM (inactive).
With `COc1cc(/C=C2\C(=O)ON=C2c2ccc(Cl)cc2)ccc1O` the IC50 (Large T antigen) was 14.6 µM (active), the EC50 [9] was 12.1 µM (active) and the AC50 [10] was 1.76 µM (active). The AC50 [11] was > 20 µM (inactive).
For `COC(=O)C1=C(C)N(Cc2ccccc2)C(NCc2ccccc2)=N[C@H]1c1cccc(C(F)(F)F)c1`, the EC50 [9] was 13.7 µM (active), the AC50 [10] was 3.27 µM (active) and the AC50 (INS1) was 8.05 µM (active). For the same molecule, the IC50 [12] was > 20 µM (inactive).
With `O=C(c1cc(-c2ccccc2Cl)on1)N1CCN(C(=O)c2ccco2)CC1` the AC50 (Cytochrome P450 2C19) was 25.1 µM (inconclusive), the AC50 (Cytochrome P450 2C9) was “inconclusive” and the AC50 (Cytochrome P450 1A2) was 25.1 µM (inconclusive). For the same molecule, the AC50 (Cytochrome P450 3A4) was “inconclusive”.
In the case of `C=C(C)[C@@H](O)COc1c2ccoc2cc2oc(=O)ccc12`, the AC50 [13] is reported as 9.08 µM (active).
For `CC1=C(/C=C/C(C)=N\NC(=O)c2ccncc2)C(C)(C)CCC1`, the IC50 (Beta-galactosidase) was > 66.6 µM (inactive), the IC50 (cells) was 610 nM (active) and the CC50 [14] was > 40 µM (active). The IC50 [7] was > 66.6 µM (inactive).
